Values after ≈ are worked out from the molar mass of the structure shown. Each block holds one compound with its values, some of them ahead of it. Active and inactive are the calls of the source. The calls are words filed in the database; no cut-off is given here.
Legend:
[1] = test system: MCF7; test: Cytotoxicity against human MCF7 cells after 24 hrs by MTT assay; format: functional, cell-based; conditions: MCF7, 24 h
[2] = test system: A549; test: Cytotoxicity against human A549 cells after 24 hrs by MTT assay; format: functional, cell-based; conditions: A549, 24 h
[3] = test system: HeLa; test: Cytotoxicity against human HeLa cells after 24 hrs by MTT assay; format: functional, cell-based
[4] = test system: DU-145; test: Cytotoxicity against human DU145 cells after 24 hrs by MTT assay; format: functional, cell-based; conditions: DU-145, 24 h
[5] = test system: Micrococcus luteus; test: Antimicrobial activity against Micrococcus luteus MTCC 2470 after 24 hrs by well diffusion method; format: functional; conditions: MTCC 2470, 24 h
[6] = test system: Micrococcus luteus; test: Antimicrobial activity against Micrococcus luteus MTCC 2470 assessed as inhibition of biofilm formation after 24 hrs by crystal violet staining-based assay; format: functional, organism-based; conditions: MTCC 2470, 24 h
[7] = test system: Pseudomonas aeruginosa; test: Antimicrobial activity against Pseudomonas aeruginosa MTCC 2453 assessed as inhibition of biofilm formation after 24 hrs by crystal violet staining-based assay; format: functional, organism-based; conditions: MTCC 2453, 24 h
[8] = test system: Pseudomonas aeruginosa; test: Antimicrobial activity against Pseudomonas aeruginosa MTCC 2453 after 24 hrs by well diffusion method; format: functional; conditions: MTCC 2453, 24 h
[9] = test system: Staphylococcus aureus; test: Antimicrobial activity against Staphylococcus aureus MTCC 96 assessed as inhibition of biofilm formation after 24 hrs by crystal violet staining-based assay; format: functional, organism-based; conditions: MTCC 96, 24 h
[10] = test system: Staphylococcus aureus; test: Bactericidal activity against Staphylococcus aureus MLS-16 MTCC 2940 after 24 hrs by agar plating method; format: functional; conditions: MLS-16 MTCC 2940, 24 h
[11] = test system: Micrococcus luteus; test: Bactericidal activity against Micrococcus luteus MTCC 2470 after 24 hrs by agar plating method; format: functional; conditions: MTCC 2470, 24 h
[12] = test system: Candida albicans; conditions: MTCC 3017
Description: Antimicrobial activity against Candida albicans MTCC 3017 after 24 hrs by well diffusion method

[13] = test system: Pseudomonas aeruginosa; test: Bactericidal activity against Pseudomonas aeruginosa MTCC 2453 after 24 hrs by agar plating method; format: functional; conditions: MTCC 2453, 24 h
[14] = test system: Staphylococcus aureus; test: Bactericidal activity against Staphylococcus aureus MTCC 96 after 24 hrs by agar plating method; format: functional; conditions: MTCC 96, 24 h
[15] = test system: Raoultella planticola; test: Antimicrobial activity against Klebsiella planticola MTCC 530 assessed as inhibition of biofilm formation after 24 hrs by crystal violet staining-based assay; format: functional, organism-based; conditions: MTCC 530, 24 h
[16] = test system: Staphylococcus aureus; test: Antimicrobial activity against Staphylococcus aureus MTCC 96 after 24 hrs by well diffusion method; format: functional; conditions: MTCC 96, 24 h
[17] = test system: Raoultella planticola; test: Bactericidal activity against Klebsiella planticola MTCC 530 after 24 hrs by agar plating method; format: functional; conditions: MTCC 530, 24 h
[18] = test system: Bacillus subtilis; test: Bactericidal activity against Bacillus subtilis MTCC 121 after 24 hrs by agar plating method; format: functional; conditions: MTCC 121, 24 h
[19] = test system: Escherichia coli; test: Antimicrobial activity against Escherichia coli MTCC 739 after 24 hrs by well diffusion method; format: functional; conditions: MTCC 739, 24 h
[20] = test system: Raoultella planticola; test: Antimicrobial activity against Klebsiella planticola MTCC 530 after 24 hrs by well diffusion method; format: functional; conditions: MTCC 530, 24 h
[21] = test system: Bacillus subtilis; test: Antimicrobial activity against Bacillus subtilis MTCC 121 after 24 hrs by well diffusion method; format: functional; conditions: MTCC 121, 24 h
[22] = test system: Escherichia coli; test: Bactericidal activity against Escherichia coli MTCC 739 after 24 hrs by agar plating method; format: functional; conditions: MTCC 739, 24 h
[23] = test system: Staphylococcus aureus; test: Antimicrobial activity against Staphylococcus aureus MLS-16 MTCC 2940 after 24 hrs by well diffusion method; format: functional; conditions: MLS-16 MTCC 2940, 24 h
[24] = test system: Staphylococcus aureus; test: Antimicrobial activity against Staphylococcus aureus MLS-16 MTCC 2940 assessed as inhibition of biofilm formation after 24 hrs by crystal violet staining-based assay; format: functional, organism-based; conditions: MLS-16 MTCC 2940, 24 h

SMILES: CCOC(=O)Cn1nc(-n2cc(Cn3c(N)nc(C(F)(F)F)cc3=O)nn2)c2ccc(C(F)(F)F)nc21
IC50 [1]: 12.2 µM | IC50 [2]: 16.2 µM | IC50 [3]: 11.4 µM | IC50 [4]: 18.3 µM

SMILES: C=CCn1nc(-n2cc(Cn3c(N)nc(C(F)(F)F)cc3=O)nn2)c2ccc(C(F)(F)F)nc21
IC50 [1]: 20.2 µM | IC50 [2]: > 100 µM | IC50 [3]: 18.2 µM | IC50 [4]: > 100 µM

SMILES: CCn1nc(-n2cc(Cn3c(N)nc(C(F)(F)F)cc3=O)nn2)c2ccc(C(F)(F)F)nc21
IC50 [1]: 95.2 µM | IC50 [2]: > 100 µM | IC50 [3]: 62.3 µM | IC50 [4]: > 100 µM

SMILES: Nc1nc(C(F)(F)F)cc(=O)n1Cc1cn(-c2nn(CCC(F)(F)C(F)(F)C(F)(F)C(F)(F)C(F)(F)C(F)(F)C(F)(F)C(F)(F)F)c3nc(C(F)(F)F)ccc23)nn1
IC50 [1]: > 100 µM | IC50 [2]: 68.2 µM | IC50 [3]: > 100 µM | IC50 [4]: 88.8 µM

SMILES: O=C(O)c1cn(C2CC2)c2cc(N3CCNCC3)c(F)cc2c1=O [CIPROFLOXACIN]
MIC [5]: 0.9 µg/mL (≈ 2.72 µM) | MIC [8]: 0.9 µg/mL (≈ 2.72 µM) | MBC [10]: 1.17 µg/mL (≈ 3.53 µM) | MBC [11]: 0.58 µg/mL (≈ 1.75 µM) | MIC [12]: inactive | MBC [13]: 0.58 µg/mL (≈ 1.75 µM) | MBC [14]: 0.58 µg/mL (≈ 1.75 µM) | MIC [16]: 0.9 µg/mL (≈ 2.72 µM) | MBC [17]: 1.17 µg/mL (≈ 3.53 µM) | MBC [18]: 1.17 µg/mL (≈ 3.53 µM) | MIC [19]: 0.9 µg/mL (≈ 2.72 µM) | MIC [20]: 0.9 µg/mL (≈ 2.72 µM) | MIC [21]: 0.9 µg/mL (≈ 2.72 µM) | MBC [22]: 0.58 µg/mL (≈ 1.75 µM) | MIC [23]: 0.9 µg/mL (≈ 2.72 µM)

More lines, main results first:

MIC [5]: 15.6 µg/mL (≈ 26.6 µM) | IC50 [6]: 3.9 µg/mL (≈ 6.66 µM) | IC50 [7]: 3.9 µg/mL (≈ 6.66 µM) | MIC [8]: 7.8 µg/mL (≈ 13.3 µM) | IC50 [9]: 7.8 µg/mL (≈ 13.3 µM) | MIC [12]: inactive | MIC [16]: 7.8 µg/mL (≈ 13.3 µM) | MIC [19]: 7.8 µg/mL (≈ 13.3 µM) | MIC [21]: 15.6 µg/mL (≈ 26.6 µM) | MIC [23]: 7.8 µg/mL (≈ 13.3 µM) | IC50 [24]: 3.9 µg/mL (≈ 6.66 µM)
SMILES: CCCCCCCCCCn1nc(-n2cc(COc3cc(C(F)(F)F)nc(N)n3)nn2)c2ccc(C(F)(F)F)nc21
IC50 [1]: 37.2 µM | MBC [10]: 7.8 µg/mL (≈ 13.3 µM) | IC50 [2]: 4.2 µM | MBC [11]: 15.6 µg/mL (≈ 26.6 µM) | IC50 [3]: 34.3 µM | MBC [13]: 15.6 µg/mL (≈ 26.6 µM) | MBC [14]: 15.6 µg/mL (≈ 26.6 µM) | IC50 [15]: 3.9 µg/mL (≈ 6.66 µM) | MBC [17]: 7.8 µg/mL (≈ 13.3 µM) | MBC [18]: 31.2 µg/mL (≈ 53.3 µM) | MIC [20]: 7.8 µg/mL (≈ 13.3 µM) | IC50 [4]: 5.8 µM | MBC [22]: 15.6 µg/mL (≈ 26.6 µM)

MIC [5]: > 250 µg/mL | IC50 [6]: 7.8 µg/mL (≈ 14.7 µM) | IC50 [7]: 15.6 µg/mL (≈ 29.4 µM) | MIC [8]: 15.6 µg/mL (≈ 29.4 µM) | IC50 [9]: 3.9 µg/mL (≈ 7.34 µM) | MIC [12]: inactive | MIC [16]: 15.6 µg/mL (≈ 29.4 µM) | MIC [19]: 15.6 µg/mL (≈ 29.4 µM) | MIC [21]: 15.6 µg/mL (≈ 29.4 µM) | MIC [23]: 7.8 µg/mL (≈ 14.7 µM) | IC50 [24]: 7.8 µg/mL (≈ 14.7 µM)
SMILES: CCOC(=O)Cn1nc(-n2cc(COc3cc(C(F)(F)F)nc(N)n3)nn2)c2ccc(C(F)(F)F)nc21
IC50 [1]: 12.4 µM | MBC [10]: 15.6 µg/mL (≈ 29.4 µM) | IC50 [2]: 16.3 µM | MBC [11]: 15.6 µg/mL (≈ 29.4 µM) | IC50 [3]: 9.8 µM | MBC [13]: 15.6 µg/mL (≈ 29.4 µM) | MBC [14]: 15.6 µg/mL (≈ 29.4 µM) | IC50 [15]: 3.9 µg/mL (≈ 7.34 µM) | MBC [17]: 15.6 µg/mL (≈ 29.4 µM) | MBC [18]: 15.6 µg/mL (≈ 29.4 µM) | MIC [20]: 7.8 µg/mL (≈ 14.7 µM) | IC50 [4]: 18.2 µM | MBC [22]: 31.2 µg/mL (≈ 58.7 µM)

IC50 [6]: 0.24 µg/mL (≈ 0.327 µM) | IC50 [7]: 0.26 µg/mL (≈ 0.354 µM) | IC50 [9]: 0.32 µg/mL (≈ 0.436 µM) | IC50 [24]: 0.32 µg/mL (≈ 0.436 µM)
SMILES: CC[C@H]1OC(=O)[C@H](C)[C@@H](O[C@H]2C[C@@](C)(OC)[C@@H](O)[C@H](C)O2)[C@H](C)[C@@H](O[C@@H]2O[C@H](C)C[C@H](N(C)C)[C@H]2O)[C@](C)(O)C[C@@H](C)C(=O)[C@H](C)[C@@H](O)[C@]1(C)O [ERYTHROMYCIN]
IC50 [15]: 0.21 µg/mL (≈ 0.286 µM)

MIC [5]: 7.8 µg/mL (≈ 16.1 µM) | MIC [8]: > 250 µg/mL | MIC [12]: inactive | MIC [16]: > 250 µg/mL | MIC [19]: > 250 µg/mL | MIC [21]: > 250 µg/mL | MIC [23]: > 250 µg/mL
SMILES: C=CCn1nc(-n2cc(COc3cc(C(F)(F)F)nc(N)n3)nn2)c2ccc(C(F)(F)F)nc21
IC50 [1]: 19.4 µM | IC50 [2]: > 100 µM | IC50 [3]: 18.4 µM | MIC [20]: > 250 µg/mL | IC50 [4]: > 100 µM

MIC [5]: > 250 µg/mL | MIC [8]: > 250 µg/mL | MIC [12]: inactive | MIC [16]: > 250 µg/mL | MIC [19]: > 250 µg/mL | MIC [21]: > 250 µg/mL | MIC [23]: > 250 µg/mL
SMILES: Nc1nc(OCc2cn(-c3nn(CCC(F)(F)C(F)(F)C(F)(F)C(F)(F)C(F)(F)C(F)(F)C(F)(F)C(F)(F)F)c4nc(C(F)(F)F)ccc34)nn2)cc(C(F)(F)F)n1
IC50 [1]: > 100 µM | IC50 [2]: 33.7 µM | IC50 [3]: > 100 µM | MIC [20]: > 250 µg/mL | IC50 [4]: 37.7 µM

Reference: ChEMBL document CHEMBL3286384, “Synthesis, cytotoxicity, antimicrobial and anti-biofilm activities of novel pyrazolo[3,4-b]pyridine and pyrimidine functionalized 1,2,3-triazole derivatives” (Bioorg Med Chem Lett, 2014)
